Consider 9 compounds from ChEMBL document CHEMBL4184104, “Identification of novel allosteric inhibitors of mutant isocitrate dehydrogenase 1 by cross docking-based virtual screening” (Bioorg Med Chem Lett, 2018).

Series [1] deals with Isocitrate dehydrogenase [NADP] cytoplasmic (Homo sapiens, UniProt O75874, R132H). Description: Inhibition of IDH1 R132H mutant (unknown origin) expressed in HEK293T cells assessed as reduction in D2-HG level after 30 mins by resazurin-based fluorescence assay. Type of series: cell-based.
Series [2] addresses Isocitrate dehydrogenase [NADP] cytoplasmic (Homo sapiens, UniProt O75874, R132C). Description: Inhibition of IDH1 R132C mutant (unknown origin) expressed in HEK293T cells assessed as reduction in D2-HG level after 30 mins by resazurin-based fluorescence assay. It counts as cell-based.
In series [3] the test system is Isocitrate dehydrogenase [NADP] cytoplasmic (Homo sapiens), O75874 [R132C]. The series can be described thus: Inhibition of IDH1 R132C mutant (unknown origin) expressed in HEK293T cells assessed as D2-HG level at 50 uM after 72 hrs relative to control. Type of series: cell-based. To be noted: values are per cent of control.
Series [4] is described as follows: Effective permeability of the compound at 25 ug/ml after 18 hrs by BBB-PAMPA method. It counts as ADME. The settings on record: read-out: Peff. (In general: The PAMPA barrier holds no transporters, so it reflects passive diffusion.)
In series [5] the test system is Isocitrate dehydrogenase [NADP] cytoplasmic (Homo sapiens), O75874 [R132H]. Description: Inhibition of IDH1 R132H mutant (unknown origin) expressed in HEK293T cells assessed as D2-HG level at 10 uM after 72 hrs relative to control. To be noted: values are per cent of control. It counts as cell-based.
Series [6] can be described thus: (§1) Cytotoxicity against HEK293T cells harboring pMXs-IDH1wt-IRES-BsdRs assessed as cell survival at 50 uM after 72 hrs by CellTiterGlo assay relative to control. Type of series: cell-based, HEK-293T. To be noted: human, HEK293T cells harboring pMXs-IDH1wt-IRES-BsdRs; read-out: Survival.
Series [7] in a line: Cytotoxicity against HEK293T cells harboring pMXs-IDH1wt-IRES-BsdRs assessed as cell survival at 10 uM after 72 hrs by CellTiterGlo assay relative to control. It counts as cell-based, HEK-293T. The settings on record: human, read-out: Survival.
Series [8] has as its system Isocitrate dehydrogenase [NADP] cytoplasmic (Homo sapiens), O75874 [R132C]. Description: Inhibition of IDH1 R132C mutant (unknown origin) expressed in HEK293T cells assessed as D2-HG level at 10 uM after 72 hrs relative to control. Type of series: cell-based. To be noted: values are per cent of control.
Series [9] concerns Isocitrate dehydrogenase [NADP] cytoplasmic (Homo sapiens), O75874 [R132H]. Description: Inhibition of IDH1 R132H mutant (unknown origin) expressed in HEK293T cells assessed as D2-HG level at 50 uM after 72 hrs relative to control. It counts as cell-based. To be noted: values are per cent of control.
In the next series the test system is HEK-293T. Described as §1. To be noted: human, hek-293t, 72 h, 50 µM. It counts as cell-based.

Chain of Isocitrate dehydrogenase [NADP] cytoplasmic (Homo sapiens), O75874 [R132C] (O75874 whole entry R132C, the tested form may be a part): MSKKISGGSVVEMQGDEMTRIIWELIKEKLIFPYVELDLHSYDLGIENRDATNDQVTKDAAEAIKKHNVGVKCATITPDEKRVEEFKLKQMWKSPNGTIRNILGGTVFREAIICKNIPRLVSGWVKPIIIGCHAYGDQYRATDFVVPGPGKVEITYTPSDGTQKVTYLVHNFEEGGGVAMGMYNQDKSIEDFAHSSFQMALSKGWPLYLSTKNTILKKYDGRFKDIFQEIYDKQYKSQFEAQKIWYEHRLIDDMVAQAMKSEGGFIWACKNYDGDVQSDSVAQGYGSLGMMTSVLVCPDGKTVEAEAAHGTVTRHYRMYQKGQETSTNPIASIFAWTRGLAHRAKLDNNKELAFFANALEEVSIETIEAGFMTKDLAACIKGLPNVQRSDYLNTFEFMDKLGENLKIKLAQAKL
Chain of Isocitrate dehydrogenase [NADP] cytoplasmic (Homo sapiens), O75874 [R132H] (O75874 whole entry R132H): as the sequence (O75874 whole entry R132C, the tested form may be a part) above, with C132H counted along it
Chain of Isocitrate dehydrogenase [NADP] cytoplasmic (Homo sapiens, UniProt O75874, R132C) (O75874 2-414 R132C limits assumed): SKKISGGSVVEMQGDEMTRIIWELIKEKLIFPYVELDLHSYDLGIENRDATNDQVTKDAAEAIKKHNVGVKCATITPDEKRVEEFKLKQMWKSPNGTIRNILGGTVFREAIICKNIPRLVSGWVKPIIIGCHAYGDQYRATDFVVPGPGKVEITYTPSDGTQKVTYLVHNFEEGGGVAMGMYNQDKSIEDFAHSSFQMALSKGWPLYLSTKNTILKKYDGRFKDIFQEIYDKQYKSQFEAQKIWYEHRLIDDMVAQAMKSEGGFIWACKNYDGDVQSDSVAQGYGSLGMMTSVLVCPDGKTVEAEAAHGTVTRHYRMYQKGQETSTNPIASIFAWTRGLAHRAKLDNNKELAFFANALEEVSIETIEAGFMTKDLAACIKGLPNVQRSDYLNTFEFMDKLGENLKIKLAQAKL
Chain of Isocitrate dehydrogenase [NADP] cytoplasmic (Homo sapiens, UniProt O75874, R132H) (O75874 2-414 R132H limits assumed): as the sequence (O75874 2-414 R132C limits assumed) above, with C131H counted along it

As usually defined, the IC50 is the concentration needed to halve the response being measured. In the case of `COC(=O)C1C(=O)C2=C(CC1C)Nc1ccccc1NC2c1c[nH]c2ccccc12` (configuration not stated), the IC50 in [1] and in [2] was 50 µM in each case.
For `CC(C)CCOc1cccc(C(=O)Nc2ccc(C(=O)Nc3cccc4ccccc34)cc2)c1`, the response, % of control in series [3] is 43.6%; in series [5], 54.9%; in series [8] it was 48.4%; in series [9] it was 49.5%. Besides, the Papp at 18 h, 25 ug/ml in series [4] stood at 8.15 ×10⁻⁶ cm/s. Besides, the viability at 72 h, 50 µM in series [6] is 88.6%. Also, the viability at 72 h, 10 µM in series [7] was found to be 91.3%.
As for `CC(O)c1cccc(NC(=O)c2cnn3c2NC(c2ccccc2)CC3C(F)(F)F)c1` (configuration not stated), the response, % of control in [3] is 40.9%; in series [5], 91.3%; in series [8] it was 79.3%; in series [9], 39.9%. Besides, in the series on HEK-293T, the Activity entry is “Non-Toxic”.
As to `O=C(Nc1cccc(NC(=O)c2cccc(S(=O)(=O)N3CCCCC3)c2)c1)c1ccc(Br)cc1`, the response, % of control in series [3] was found to be 109%; in [5], 58.2%; in series [8], 61.1%; in [9] it was 59.5%. The Activity result with HEK-293T is reported as “Non-Toxic”.
For `Cc1ccccc1C(C(=O)NC1CCCCC1)N(C(=O)Cn1ccnc1C)c1cccc(F)c1` (configuration not stated), the response, % of control was found to be 0.9% in [3], 1.3% in series [5], 13.3% in series [8] and 0.4% in [9].
In the case of `COc1cccc(C(=O)Nc2cccc(OCC(=O)c3ccccc3)c2)c1`, the response, % of control worked out at 103% in series [3], 94.6% in series [5], 138% in [8] and 73.7% in [9]. Moreover, the Activity result in the series with HEK-293T is listed as “Non-Toxic”.
Consider `COC(=O)c1ccccc1NC(=O)CNCn1cnc2ccccc21`, for which the response, % of control was found to be 50.4% in series [3], 86.2% in series [5], 86.1% in [8] and 66.3% in series [9]. Moreover, the Activity result in the series on HEK-293T is given as “Non-Toxic”.
Take `Cc1ccc(NC(=O)c2cc([N+](=O)[O-])cc3c2-c2ccc([N+](=O)[O-])cc2C3=O)cc1`: the response, % of control in series [3] was found to be 52.7%; in series [5], 103%; in series [9] it was 72.5%. Moreover, the Activity result in the series on HEK-293T is given as “Non-Toxic”.
In the case of `COc1ccccc1NC(=O)c1c(NCc2cccnc2)sc2c1CC[C@H](C)C2`, the response, % of control in series [3] turned out to be 34.7%; in series [5], 96.7%; in series [8], 123%; in series [9], 32%. In addition, the Activity result in the series on HEK-293T is on record as “Non-Toxic”.
